According to paper PMC11002875, “Linking triphenylphosphonium cation to a bicyclic hydroquinone improves their antiplatelet effect via the regulation of mitochondrial function” (Redox Biology, 2024):

Key:
[1] = test system: platelet-rich plasma; assay: Platelet aggregation in platelet-rich plasma; format: cell-based, Human; details: collagen 2 μg/mL; PRP
Experimental: (§1) Platelet aggregation in platelet-rich plasma. The blood sample was obtained from voluntary donors (10 days without antiplatelet medication) who agreed to participate after signing informed consent (Scientific Ethics Committee of the University of Talca N° 04–2022). Venous blood was collected by phlebotomy into 3.2% sodium citrate tubes. The tubes were centrifuged at 250 g for 12 min to obtain PRP. After reserving the PRP, the tubes were centrifuged again at 900 g for 10 min to obtain platelet-poor plasma (PPP). For the aggregation reaction, PRP was adjusted to 200-250 × 10^6 platelets/mL with PPP [[63], [64], [65]]. Platelet counting was performed in a counter (Mindray BC-3000 Plus hematology counter, Japan). The samples were preincubated with the compounds under study for 5 min at 37 °C in the aggregometer (Agg RAM- Helena Biosciences). Aggregation was initiated with collagen 2 μg/mL and the reaction was evaluated for 5 min at 37 °C in shaking at 1000 rpm.

[2] = test system: platelet-rich plasma; assay: Platelet activation markers in PRP (flow cytometry); format: cell-based, Human; details: collagen 2 μg/mL
Experimental: as §1
Platelet activation markers. […] Aliquots of the reaction were then collected and labeled separately with human antibodies (BD Biosciences, San José, CA, USA) for P-selectin, CD63, activated GPIIb/IIIa (PAC-1), and fibrinogen to assess the levels of each marker on the platelet membrane. The sample was acquired using the BD Facs Lyric flow cytometer (BD Biosciences, USA). […]

[3] = test system: Washed platelets; assay: Mitochondrial membrane potential (TMRM); format: cell-based, Human; details: compounds 1, 5 and 10 μM, 20 min
Experimental: (§2) Human platelet purification. The blood sample was obtained from voluntary donors (10 days without antiplatelet medication) who agreed to participate after signing informed consent (Scientific Ethics Committee of the University of Talca N° 04–2022). Briefly, blood anticoagulated with acid-citrate-dextrose (ACD) was obtained in a 4:1 v/v ratio. The sample was centrifuged for 12 min at 250 g to obtain platelet-rich plasma (PRP). Subsequently, the PRP was centrifuged for 8 min at 900 g to obtain the platelet pellet. The plasma supernatant was removed, and the platelets were resuspended in Tyrodes buffer without calcium plus ACD in a ratio of 5:1 v/v. The platelets were centrifuged once more for 8 min at 900 g and the pellet was resuspended in Tyrodes buffer without calcium. Finally, the platelets were counted (Mindray BC-3000 Plus hematology counter, Japan), adjusted to the desired concentration, and used within 3 h.
Mitochondrial membrane potential (ΔΨm). Washed platelets (50 × 10^6 platelets/mL) were labeled with a 100 nM tetramethylrhodamine methyl ester (TMRM) probe and incubated with compounds (1, 5 and 10 μM) for 20 min at 37 °C. The sample was acquired in the BD Facs Lyric flow cytometer (BD Biosciences, USA). Representative dot plots are available in Supplementary Figs. 12, 24, and 25. Carbonyl cyanide 4-(trifluoromethoxy) phenylhydrazone (FCCP) 1 μM was used as a control for decreasing the mitochondrial membrane potential.

[4] = test system: Washed platelets; assay: Intraplatelet calcium levels (Fluo-4-AM); format: cell-based, Human; details: compounds 1, 5 and 10 μM, 10 min
Experimental: as §2
Intraplatelet calcium levels. Washed platelets (200-250 × 10^6 platelets/mL) were labeled Fluo-4-AM probe with 0.5 μM and incubated for 20 min at room temperature protected from light. Subsequently, platelets were adjusted to a count of 50 × 10^6 platelets/mL, and compounds (1, 5, and 10 μM) were added and incubated for 10 min at 37 °C. The sample was acquired in the BD Facs Lyric flow cytometer (BD Biosciences, USA). Representative dot plots are available in Supplementary Figs. 13 and 26. As a control for increased intracellular calcium, P-trifluoromethoxyphenylhydrazone carbonylcyanide (FCCP) 1 μM was used.

[5] = test system: complex I from Y. lipolytica mitochondrial membranes reconstituted into proteoliposomes; assay: Proton pumping and activity of reconstituted complex I (ACMA quench in proteoliposomes); format: biochemical
Experimental: Proton pumping and activity of reconstituted complex I. Purification of complex I from Y. lipolytica mitochondrial membranes and reconstitution of complex I into Proteoliposomes was performed as previously described. Briefly, complex I was reconstituted in proteoliposomes (Cxl), and then ACMA (9-Amino-6-Chloro-2-Methoxyacridine) was added to quantify the proton pumping activity. Fluorescence changes were monitored at 25 °C in a Fluorolog-3 spectrofluorometer (Horiba Scientific). Settings: λex = 430 nm, λem = 475, slit 5 nm, time increment 0.2 s. Proteoliposomes (15 μg protein) were diluted in 2 ml assay buffer (20 mM Mops pH 7.2, 80 mM KCl, 0.5 μM valinomycin). After starting the measurement, 0.5 μM ACMA, 70 μM decylubiquinone (DBQ), 125 μM NADH, NP4 […]/vehicle, and Carbonyl cyanide m-chlorophenyl hydrazone (CCCP) 5 μM were added after 50, 100, 150, 200 and 300 s, respectively. The measurements were done in triplicate for 5, 15, 30, 45, 60 and 100 μM NP4. The Average over the time after the addition of NADH/NP4/CCCP till the next addition was taken from each measurement. The quenching after NADH the addition was taken as the zero % value and the dequench with CCCP was set to 100%. The zero value was subtracted from the dequenching with NP4 and the max dequenching with CCCP. The DMSO negative control was measured in duplicate.

## Cc1c(C)c(O)c2c(c1O)C(=O)C(CCCC[P+](c1ccccc1)(c1ccccc1)c1ccccc1)=CC2(C)C.[Br-] [NP4, (4-(5,8-dihydroxy-4,4,6,7-tetramethyl-1-oxo-1,4-dihydronaphthalen-2-yl)butyl)triphenyl phosphonium bromide]
[1]
  Platelet aggregation in platelet-rich plasma: significant decrease
[2]
  Bound fibrinogen in platelet-rich plasma: significant decrease
  P-selectin exposure in platelet-rich plasma: significant decrease
[3]
  Mitochondrial membrane potential (ΔΨm): significantly decrease
[4]
  Intraplatelet calcium levels: increase it significantly
[5]; ACMA dequench relative to CCCP (100%), 5-100 μM NP4
  IC50: 37.7 ± 1.14 µM
[5]; ACMA fluorescence, proteoliposomes
  Concentrations that decouple complex I in liposomes: 30 to 60 µM
other
  melting point: 282 °C (dec.)
